This passage reports IC50 results from patent US5034531A, “Fused polycyclic pyranyl compounds as antiviral agents” (priority 1988, dated 1991).

In the experiment the test system is HSV-2. In words: Transient expression assay: inhibition of HSV replication (HSV-2-induced β-galactosidase expression from HSV-1 TK promoter/Lac Z plasmid pON 245 in HeLa cells). Type of experiment: cell-based, Herpes simplex virus HSV-2 (ATCC VR-540). The conditions noted are these: Human alphaherpesvirus 2, HeLa, 24 h, read-out: IC50-values for Inhibition of HSV replication. As to the method:
The following example illustrates the activities of various compounds for inhibiting beta-galactosidase.
Transient Expression Assay
Herpes simplex virus (HSV) is grown and titered on Vero cells, a standard cell line.
Plasmid pON 245 (constructed by Ed Mocarski at Stanford University, Stanford California) is used for the assay. This plasmid contains the HSV-1 thymidine kinase (TK) promoter located immediately 5' of the E. coli Lac Z gene and controls transcription from the bacterial gene in transient assays. Plasmids (22 μg/10^6 cells) are introduced into standard HeLa cells by DEAE-dextran-mediated transfection. DEAE-dextran is an electropositivity charged polymer which is a diethylamino ethyl ether of dextran. Forty-eight hours after transfection, cells are infected with HSV-2 (American Type Collection Culture (ATCC) VR-540) (multiplicity of infection=5 plaque-forming units per cell). Twenty-four hours after viral infection, levels of β-galactosidase in cells are assayed by incubation in the presence of 4-methylumbelliferyl-β-D-galactoside for 2 hours on a microfluorimeter after addition of 0.1 M glycine buffer, pH=10.3. An inhibitory concentration (IC50 value), for example, of 8 μg/ml indicates the amount of compound which reduces maximal β-galactosidase expression by 50 percent. The inhibition of expression of β-galactosidase activity indicates the inhibition of viral replication at events prior to or including […] kinase (TK) expression by HSV-2.

In brackets after ≈: the same amount, converted by molar mass.

In general, IC50 refers to the concentration that gives 50% inhibition. For `O=c1c2c(oc3ncccc13)CCc1ccccc1-2`, the half-inhibitory concentration (IC50) stood at 16 µg/mL (≈ 64.2 µM). For `O=c1c(-c2ccccc2)coc2ncc(Br)cc12`, the half-inhibitory concentration (IC50) was determined as 10 µg/mL (≈ 33.1 µM). With `O=c1c2c(oc3ccccc13)-c1ccccc1CCC2`, the half-inhibitory concentration (IC50) came out at 8 µg/mL (≈ 30.5 µM). Take `O=c1c2c(oc3ncccc13)-c1ccccc1CCC2`: the IC50 is greater than 25 µg/mL.
